Results from ChEMBL document CHEMBL5365403, “Synthesis of proposed structure of ledebourin A” (Bioorg Med Chem Lett, 2023).
The source made the active and inactive calls. The rule behind the calls is not given here.

Key:
HepG2 [1] = test: Hepatoprotective activity against GA-induced human HepG2 cells assessed as cell viability at 10 uM pre-incubated for 2 hrs followed by GA addition and measured after 22 hrs by MTT assay (Rvb=37% ); format: functional; details: time 24 hrs, read-out: Activity
HepG2 [2] = test: Hepatoprotective activity against GA-induced human HepG2 cells assessed as reduction in Bax protein expression at 5 to 10 uM; format: functional, cell-based; details: dose 5-10 µM
HepG2 [3] = test: Cytotoxicity against human HepG2 cells assessed as reduction cell viability at 10 uM after 24 hrs by MTT assay; format: toxicity, cell-based; details: hepg2, 24 h

Compound | viability at 10 µM (HepG2 [1]) | Activity (HepG2 [2]) | Activity (HepG2 [3])
COc1ccc(C[C@H]2COc3cc4c(c(O)c3C2=O)C=CC(C)(C)O4)cc1 | 47% | Active | Non-Toxic
COc1ccc(C[C@H]2COc3c4c(cc(O)c3C2=O)OC(C)(C)C=C4)cc1 | 51% | Active | Non-Toxic
